Test results reported in ChEMBL document CHEMBL3132855, “Synthesis and antiviral evaluation of 4-(1,2,3-triazol-1-yl)thymidines” (Medchemcomm, 2014).
The source made the active and inactive calls. No cut-off for these calls is given here.

Assays:
[1] = tested on: Hepatitis C virus; experiment: Antiviral activity against HCV1b infected in human HuH-7 cells assessed as inhibition of viral replication at 10 uM after 3 days by luciferase assay; assay type: functional, organism-based; settings: Hepacivirus hominis, genotype 1b
[2] = tested on: West Nile virus; experiment: Antiviral activity against West Nile virus infected in baby hamster BHK-WII RepRen1B cells assessed as inhibition of viral replication at 10 uM after 3 days by luciferase assay; assay type: functional, organism-based
[3] = tested on: Influenza A virus; experiment: Antiviral activity against Influenza A/WSN/33 virus infected in human A549 cells assessed as inhibition of virus-induced cytopathic effect at 10 uM after 5 days by neutral red assay; assay type: functional; settings: A/WSN/1933(H1N1), A549, 120 h
[4] = Cytotoxicity against human CEM-SS cells assessed as cell viability at 10 uM after 6 days by MTS assay; assay type: cell-based; settings: read-out: Activity
[5] = tested on: Human immunodeficiency virus 1; experiment: Antiviral activity against HIV1 3B infected in human CEM-SS cells assessed as inhibition of virus-induced cytopathic effect at 10 uM after 6 days by MTS assay; assay type: functional; settings: Human immunodeficiency virus 1, 3B, 144 h
[6] = tested on: Influenza A virus; experiment: Antiviral activity against Influenza A/WSN/33 virus infected in MDCK cells assessed as inhibition of virus-induced cytopathic effect at 10 uM after 5 days by neutral red assay; assay type: functional; settings: A/WSN/1933(H1N1), 120 h

## COc1ccc2cc(-c3cn([C@]4(CO)O[C@@H](n5cc(C)c(=O)[nH]c5=O)C[C@@H]4O)nn3)ccc2c1
[1]
  inhibition: inactive
[2]
  inhibition: inactive
[3]
  inhibition at 10 µM: 0%
[4]
  viability at 144 h, 10 µM: 95%
[5]
  inhibition at 10 µM: 18%

## Cc1cn([C@H]2C[C@H](O)[C@](CO)(n3cc(-c4cc5ccccc5c5ccccc45)nn3)O2)c(=O)[nH]c1=O
[1]
  inhibition: inactive
[2]
  inhibition: inactive
[3]
  inhibition at 10 µM: 0%
[4]
  viability at 144 h, 10 µM: 86%
[5]
  inhibition at 10 µM: 0%

## Cc1cn([C@H]2C[C@H](O)[C@](CO)(n3cc(C4CCCC4)nn3)O2)c(=O)[nH]c1=O
[1]
  inhibition: inactive
[2]
  inhibition: inactive
[3]
  inhibition at 10 µM: 3.1%
[4]
  viability at 144 h, 10 µM: 100%
[5]
  inhibition at 10 µM: 5%

## Cc1cn([C@H]2C[C@H](O)[C@](CO)(n3cc(-c4ccccc4)nn3)O2)c(=O)[nH]c1=O
[1]
  inhibition: inactive
[2]
  inhibition: inactive
[3]
  inhibition at 10 µM: 0%
[4]
  viability at 144 h, 10 µM: 94%
[5]
  inhibition at 10 µM: 62%

## Cc1cn([C@H]2C[C@H](O)[C@](CO)(n3cc(CSc4ccccc4)nn3)O2)c(=O)[nH]c1=O
[1]
  inhibition: inactive
[2]
  inhibition: inactive
[3]
  inhibition at 10 µM: 3.3%
[4]
  viability at 144 h, 10 µM: 99%
[5]
  inhibition at 10 µM: 20%

## COc1ccc2c(-c3cn([C@]4(CO)O[C@@H](n5cc(C)c(=O)[nH]c5=O)C[C@@H]4O)nn3)cccc2c1
[1]
  inhibition: inactive
[2]
  inhibition: inactive
[3]
  inhibition at 10 µM: 5.3%
[4]
  viability at 144 h, 10 µM: 95%
[5]
  inhibition at 10 µM: 0%

## CC(=O)Nc1ccc(-c2cn([C@]3(CO)O[C@@H](n4cc(C)c(=O)[nH]c4=O)C[C@@H]3O)nn2)cc1
[1]
  inhibition: inactive
[2]
  inhibition: inactive
[6]
  inhibition at 10 µM: 3%
[3]
  inhibition at 10 µM: 54%
[4]
  viability at 144 h, 10 µM: 98%
[5]
  inhibition at 10 µM: 0%

## COc1ccc(-c2cn([C@]3(CO)O[C@@H](n4cc(C)c(=O)[nH]c4=O)C[C@@H]3O)nn2)cc1
[1]
  inhibition: inactive
[2]
  inhibition: inactive
[6]
  inhibition at 10 µM: 1%
[3]
  inhibition at 10 µM: 19%
[4]
  viability at 144 h, 10 µM: 84%
[5]
  inhibition at 10 µM: 0%

## Cc1cn([C@H]2C[C@H](O)[C@](CO)(n3cc(-c4ccc(Br)cc4)nn3)O2)c(=O)[nH]c1=O
[1]
  inhibition: inactive
[2]
  inhibition: inactive
[6]
  inhibition at 10 µM: 4%
[3]
  inhibition at 10 µM: 18%
[4]
  viability at 144 h, 10 µM: 100%
[5]
  inhibition at 10 µM: 60%

## Cc1cn([C@H]2C[C@H](O)[C@](CO)(n3cc(-c4ccc(N(C)C)cc4)nn3)O2)c(=O)[nH]c1=O
[1]
  inhibition: inactive
[2]
  inhibition: inactive
[6]
  inhibition at 10 µM: 1%
[3]
  inhibition at 10 µM: 21%
[4]
  viability at 144 h, 10 µM: 100%
[5]
  inhibition at 10 µM: 12%

## Cc1cn([C@H]2C[C@H](O)[C@](CO)(n3cc(COc4ccc5ccccc5c4)nn3)O2)c(=O)[nH]c1=O
[1]
  inhibition: inactive
[2]
  inhibition: inactive
[6]
  inhibition at 10 µM: 1%
[3]
  inhibition at 10 µM: 16%
[4]
  viability at 144 h, 10 µM: 93%
[5]
  inhibition at 10 µM: 0%

## Cc1cn([C@H]2C[C@H](O)[C@](CO)(n3cc(C(C)O)nn3)O2)c(=O)[nH]c1=O (stereo partly specified)
[1]
  inhibition: inactive
[2]
  inhibition: inactive
[3]
  inhibition at 10 µM: 0%
[4]
  viability at 144 h, 10 µM: 100%
[5]
  inhibition at 10 µM: 8%

## Cc1ccc(-c2cn([C@]3(CO)O[C@@H](n4cc(C)c(=O)[nH]c4=O)C[C@@H]3O)nn2)cc1
[1]
  inhibition: inactive
[2]
  inhibition: inactive
[3]
  inhibition at 10 µM: 0%
[4]
  viability at 144 h, 10 µM: 99%
[5]
  inhibition at 10 µM: 0%

## Cc1cn([C@H]2C[C@H](O)[C@](CO)(n3cc(-c4ccsc4)nn3)O2)c(=O)[nH]c1=O
[1]
  inhibition: inactive
[2]
  inhibition: inactive
[3]
  inhibition at 10 µM: 0%
[4]
  viability at 144 h, 10 µM: 100%
[5]
  inhibition at 10 µM: 19%

## Cc1cn([C@H]2C[C@H](O)[C@](CO)(n3cc(CON4C(=O)c5ccccc5C4=O)nn3)O2)c(=O)[nH]c1=O
[1]
  inhibition: inactive
[2]
  inhibition: inactive
[3]
  inhibition at 10 µM: 3.7%
[4]
  viability at 144 h, 10 µM: 99%
[5]
  inhibition at 10 µM: 1%

## Cc1cn([C@H]2C[C@H](O)[C@](CO)(n3cc(-c4ccc(F)cc4)nn3)O2)c(=O)[nH]c1=O
[1]
  inhibition: inactive
[2]
  inhibition: inactive
[3]
  inhibition at 10 µM: 0%
[4]
  viability at 144 h, 10 µM: 95%
[5]
  inhibition at 10 µM: 0%

## Cc1cn([C@H]2C[C@H](O)[C@](CO)(n3cc(C(O)c4ccccc4)nn3)O2)c(=O)[nH]c1=O (stereo partly specified)
[1]
  inhibition: inactive
[2]
  inhibition: inactive
[3]
  inhibition at 10 µM: 5%
[4]
  viability at 144 h, 10 µM: 100%
[5]
  inhibition at 10 µM: 0%

## Cc1cn([C@H]2C[C@H](O)[C@](CO)(n3cc(-c4ccc(Oc5ccccc5)cc4)nn3)O2)c(=O)[nH]c1=O
[1]
  inhibition: inactive
[2]
  inhibition: inactive
[6]
  inhibition at 10 µM: 1%
[3]
  inhibition at 10 µM: 48%
[4]
  viability at 144 h, 10 µM: 95%
[5]
  inhibition at 10 µM: 1%

## CCOC(=O)C(Cc1ccc(OCc2cn([C@]3(CO)O[C@@H](n4cc(C)c(=O)[nH]c4=O)C[C@@H]3O)nn2)cc1)NC(=O)OC(C)(C)C (stereo partly specified)
[1]
  inhibition: inactive
[2]
  inhibition: inactive
[3]
  inhibition at 10 µM: 0%
[4]
  viability at 144 h, 10 µM: 97%
[5]
  inhibition at 10 µM: 0%

## Cc1cn([C@H]2C[C@H](O)[C@](CO)(n3cc(-c4ccc(-c5ccccc5)cc4)nn3)O2)c(=O)[nH]c1=O
[1]
  inhibition: inactive
[2]
  inhibition: inactive
[3]
  inhibition at 10 µM: 1.7%
[4]
  viability at 144 h, 10 µM: 80%
[5]
  inhibition at 10 µM: 31%

## Cc1cn([C@H]2C[C@H](O)[C@](CO)(n3cc(C4CC4)nn3)O2)c(=O)[nH]c1=O
[1]
  inhibition: inactive
[2]
  inhibition: inactive
[3]
  inhibition at 10 µM: 0%
[4]
  viability at 144 h, 10 µM: 99%
[5]
  inhibition at 10 µM: 0%

## Cc1cn([C@H]2C[C@H](O)[C@](CO)(n3cc(CO)nn3)O2)c(=O)[nH]c1=O
[1]
  inhibition: inactive
[2]
  inhibition: inactive
[3]
  inhibition at 10 µM: 0%
[4]
  viability at 144 h, 10 µM: 100%
[5]
  inhibition at 10 µM: 2%

## Cc1cn([C@H]2C[C@H](O)[C@](CO)(n3cc(COc4ccccc4)nn3)O2)c(=O)[nH]c1=O
[1]
  inhibition: inactive
[2]
  inhibition: inactive
[3]
  inhibition at 10 µM: 10%
[4]
  viability at 144 h, 10 µM: 97%
[5]
  inhibition at 10 µM: 0%

## Cc1cn([C@H]2C[C@H](O)[C@](CO)(n3cc(C4CCCCC4)nn3)O2)c(=O)[nH]c1=O
[1]
  inhibition: inactive
[2]
  inhibition: inactive
[3]
  inhibition at 10 µM: 2.2%
[4]
  viability at 144 h, 10 µM: 96%
[5]
  inhibition at 10 µM: 0%
